Measured values taken from publication PMC11374718, “Unlocking opioid neuropeptide dynamics with genetically encoded biosensors” (Nature Neuroscience, 2024).

Columns and labels:
κLight1.3a [1] = experiment: in vivo fiber photometry of κLight1.3a in NAcSh, agonist/antagonist drug injection; design: species or system mouse; conditions: κOR-Cre mice NAcSh; aticaprant 3 mg per kg + U50,488 10 mg per kg i.p.; 0–50 min; n = 6
Procedure: To detect dynorphin signaling at κOR-expressing neurons, we injected κOR-Cre mice with AAV5-CAG-DIO-κLight1.3a and implanted optical fibers in the NAcSh. A subset of mice was also injected with the red-shifted opsin ChRimson (AAV5-DIO-EF1a-ChRimson-tdTomato) in the BLA (Fig. 5a–c and Extended Data Fig. 5a); ChRimson-lacking mice served as a negative control to determine if optical stimulation produced artifactual dynamics in κLight1.3a fluorescence. We first examined the response of κLight1.3a to the agonist U50,488 in these mice (Fig. 5d).
Mice were pretreated with either vehicle (17:1:1:1 ratio of saline:dimethylsulfoxide:corn oil:ethanol) or aticaprant (Eli Lilly) at 3 mg per kg body weight […] i.p. for 30 min. […]
Custom MATLAB scripts were developed for analyzing fiber photometry data in the context of mouse behavior. […] After baseline correction, the photometry trace was z-scored relative to the mean and standard deviation of the session. The post-processed fiber photometry signal was analyzed in the context of animal behavior during Pavlovian conditioning and operant task performance. […] Peak, mean and minimum fluorescence was determined during predetermined time windows for the injection period (0–5 min), reward period (5–20 s), release period (0–20 s) or artifact period (0–20 s) subtracted from peak, mean or minimum fluorescence values in a baseline window (−5 to 0 s). […]

κLight1.3a [2] = experiment: in vivo BLA terminal ChRimson stimulation-evoked κLight1.3a activity in NAcSh after drug pretreatment; design: species or system mouse; conditions: aticaprant 3 mg per kg i.p. pretreatment; normalized to vehicle; 0–20 s; n = 4

## Cc1cc(C)cc([C@@H]2CCCN2Cc2ccc(Oc3ccc(C(N)=O)cc3F)cc2)c1 [aticaprant]
κLight1.3a [1]
  Normalized peak fluorescence of κLight1.3a during injection period: 0.29 ± 0.07
κLight1.3a [2]
  Normalized peak fluorescence of κLight1.3a, ChRimson stimulation-evoked trials: 0.63 ± 0.14
